From patent publication US20140051679A1, “KINASE INHIBITORS AND METHOD OF TREATING CANCER WITH SAME” (UNIVERISTY HEALTH NETWORKS, priority 2011, published 2014)

Legend:
Aurora B = biological target: T1, Aurora B (Homo sapiens, UniProt Q96GD4); assay: Aurora B inhibition assay (Z-Lyte); assay type: biochemical; conditions: 28 nM Aurora B, 128 μM ATP; read-out: IC50 Ranges Aurora B
T1 construct: purchased Invitrogen PV3970
Protocol: Aurora B inhibition was determined using the Z-Lyte assay kit from Invitrogen. The assay was performed using the recommended manufacturer's instructions with 128 μM ATP and 28 nM Aurora B (Invitrogen cat #PV3970). The % inhibition values were determined according to the manufacturer's directions and IC50 values were obtained using a non-linear 4 point logistic curve fit (XLfit4, IDBS)

[1] = test system: MDA-MB-468 breast cancer cells; assay: Cell growth inhibition, Sulforhodamine B assay, MDA-MB-468; assay type: cell-based; conditions: Homo sapiens, 120 h, 5 days culture, SRB assay, read-out: Cell Line GI50 Range MDA-MB-468
human PLK4 = biological target: T2, human PLK4 (Homo sapiens, UniProt O00444); assay: PLK4 inhibition assay (indirect ELISA); assay type: biochemical; conditions: GST-PLK4 4 nM, 15 μM ATP; read-out: IC50 Ranges PLK4
T2 construct: amino terminal GST fusion of residues 1-391 of human PLK4; made in house; host or cells: E. coli
T2 sequence (O00444 1-391): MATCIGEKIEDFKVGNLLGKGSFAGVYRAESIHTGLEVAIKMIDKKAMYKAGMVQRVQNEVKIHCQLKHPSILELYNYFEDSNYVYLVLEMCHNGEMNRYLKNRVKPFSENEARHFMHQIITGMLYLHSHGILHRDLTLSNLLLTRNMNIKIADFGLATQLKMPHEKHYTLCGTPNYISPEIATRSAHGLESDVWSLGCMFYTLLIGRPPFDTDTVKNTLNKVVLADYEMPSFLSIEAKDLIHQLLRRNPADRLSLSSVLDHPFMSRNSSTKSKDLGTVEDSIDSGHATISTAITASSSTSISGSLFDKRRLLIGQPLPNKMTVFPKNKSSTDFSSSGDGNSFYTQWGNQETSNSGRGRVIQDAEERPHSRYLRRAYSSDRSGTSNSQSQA
Protocol: Active PLK4 was purified from an E. coli expression system as an amino terminal GST fusion of residues 1-391 of human PLK4. The protein was purified from clarified cell extracts after induction at 15° C. overnight using glutathione sepharose, gel permeation chromatography, and ion exchange (Resource Q). The resulting protein was dephosphorylated with lambda phosphatase (NEB cat#P0753), and resolved from the phosphatase using gluthione sepharose. The dephosphorylated GST-PLK4 was stored in aliquots at −80° C. until use.
PLK4 activity was measured using an indirect ELISA detection system. GST-PLK4 (4 nM) was incubated in the presence of 15 μM ATP (Sigma cat#A7699), 50 mM HEPES-Na^2+ pH 7.5, 10 mM MgCl2, 0.01% Brij 35 (Sigma cat#03-3170), in a 96 well microtitre plate pre-coated with MBP (Millipore cat#30-011). The reaction was allowed to proceed for 30 minutes, followed by 5 washes of the plate with Wash Buffer (phosphate buffered saline supplemented with 0.2% Tween 20), and incubation for 30 minutes with a 1:3000 dilution of primary antibody (Cell Signaling cat#9381). The plate was washed 5 times with Wash Buffer, incubated for 30 minutes in the presence of secondary antibody coupled to horse radish peroxidase (BioRad cat#1721019, 1:3000 concentration), washed an additional 5 times with Wash Buffer, and incubated in the presence of TMB substrate (Sigma cat#T0440). The colourimetric reaction was allowed to continue for 5 minutes, followed by addition of stop solution (0.5 N sulphuric acid), and quantified by detection at 450 nm with either a monochromatic or filter based plate reader (Molecular Devices M5 or Beckman DTX880, respectively).
Compound inhibition was determined at either a fixed concentration (10 μM) or at a variable inhibitor concentration (typically 0.5 μM to 0.001 μM in a 10 point dose response titration). Compounds were pre-incubated in the presence of enzyme for 15 minutes prior to addition of ATP and the activity remaining quantified using the above described activity assay. The % Inhibition of a compound was determined using the following formula; % Inhibition=100×(1-(experimental value−background value)/(high activity control−background value)). The IC50 value was determined using a non-linear 4 point logistic curve fit (XLfit4, IDBS) with the formula; (A+(B/(1+((x/C)̂D)))), where A=background value, B=range, C=inflection point, D=curve fit parameter.

HT29 colon cancer cells = assay: Cell growth inhibition, Sulforhodamine B assay, HT29; assay type: cell-based; conditions: Homo sapiens, HT-29, 120 h, 5 days culture, SRB assay, read-out: Cell Line GI50 Range HT29
human TTK = biological target: T3, human TTK (Homo sapiens, UniProt P33981); assay: TTK inhibition assay (indirect ELISA); assay type: biochemical; conditions: GST-TTK 0.68 nM, 16 μM ATP; read-out: IC50 Ranges TTK
T3 construct: amino terminal GST fusion of full length human TTK; purchased Invitrogen
T3 sequence (P33981 1-857): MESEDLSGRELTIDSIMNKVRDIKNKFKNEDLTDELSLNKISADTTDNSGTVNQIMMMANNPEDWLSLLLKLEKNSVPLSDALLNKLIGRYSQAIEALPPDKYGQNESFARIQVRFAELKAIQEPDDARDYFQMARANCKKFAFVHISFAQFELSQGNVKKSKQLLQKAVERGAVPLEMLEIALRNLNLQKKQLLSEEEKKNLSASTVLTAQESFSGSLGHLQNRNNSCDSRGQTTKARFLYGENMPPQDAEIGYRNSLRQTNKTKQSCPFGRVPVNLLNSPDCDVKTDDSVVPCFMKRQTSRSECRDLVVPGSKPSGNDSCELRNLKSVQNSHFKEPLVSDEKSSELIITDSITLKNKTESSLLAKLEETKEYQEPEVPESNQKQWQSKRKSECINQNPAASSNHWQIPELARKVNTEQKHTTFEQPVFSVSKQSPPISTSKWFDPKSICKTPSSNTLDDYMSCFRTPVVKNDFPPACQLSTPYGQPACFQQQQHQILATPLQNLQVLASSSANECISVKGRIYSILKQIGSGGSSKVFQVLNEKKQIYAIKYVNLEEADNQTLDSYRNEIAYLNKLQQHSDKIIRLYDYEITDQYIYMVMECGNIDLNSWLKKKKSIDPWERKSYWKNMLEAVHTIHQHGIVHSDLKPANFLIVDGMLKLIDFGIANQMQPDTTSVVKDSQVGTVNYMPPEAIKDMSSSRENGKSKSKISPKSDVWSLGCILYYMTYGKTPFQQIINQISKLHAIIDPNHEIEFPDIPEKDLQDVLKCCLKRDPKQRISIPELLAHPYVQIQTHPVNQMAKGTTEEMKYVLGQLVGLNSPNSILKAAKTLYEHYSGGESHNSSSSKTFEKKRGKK

[2] = test system: HCT116 colon cancer cells; assay: Cell growth inhibition, Sulforhodamine B assay, HCT116; assay type: cell-based; conditions: Homo sapiens, HCT-116, 120 h, 5 days culture, SRB assay, read-out: Cell Line GI50 Range HCT116

T1 sequence (Q96GD4 whole entry): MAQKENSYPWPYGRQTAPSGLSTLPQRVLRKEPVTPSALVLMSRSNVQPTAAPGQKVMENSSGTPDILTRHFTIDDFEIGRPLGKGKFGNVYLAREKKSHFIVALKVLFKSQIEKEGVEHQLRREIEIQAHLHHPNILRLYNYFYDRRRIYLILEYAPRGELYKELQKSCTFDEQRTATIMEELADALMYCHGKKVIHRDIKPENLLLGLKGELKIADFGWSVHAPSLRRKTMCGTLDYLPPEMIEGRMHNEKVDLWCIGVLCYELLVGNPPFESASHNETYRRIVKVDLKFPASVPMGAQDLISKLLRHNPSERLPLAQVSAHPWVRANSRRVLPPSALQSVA

COC(C(=O)Nc1ccc2[nH]nc(-c3ccc(OC4CCN(C)CC4)cc3)c2c1)c1ccsc1 (stereo not drawn) [Example A37, 2-methoxy-N-(3-(4-((1-methylpiperidin-4-yl)oxy)phenyl)-1H-indazol-5-yl)-2-(thiophen-3-yl)acetamide]
≤ 5 µM: IC50 (Aurora B) | GI50 [1] | IC50 (human PLK4) | GI50 (HT29 colon cancer cells) | IC50 (human TTK) | GI50 [2]

CN1CCC(Oc2ccc(-c3n[nH]c4ccc(NC(=O)C5c6ccccc6CCN5C)cc34)cc2)CC1 (stereo not drawn) [Example A39, 2-methyl-N-(3-(4-((1-methylpiperidin-4-yl)oxy)phenyl)-1H-indazol-5-yl)-1,2,3,4-tetrahydroisoquinoline-1-carboxamide]
≤ 5 µM: IC50 (Aurora B) | GI50 [1] | IC50 (human PLK4) | GI50 (HT29 colon cancer cells) | IC50 (human TTK) | GI50 [2]

C[C@H]1CCCN1[C@H](C(=O)Nc1ccc2[nH]nc(-c3ccc(N4CCOCC4)cc3)c2c1)c1ccsc1 [Example A47, (S)-2-((S)-2-methylpyrrolidin-1-yl)-N-(3-(4-morpholinophenyl)-1H-indazol-5-yl)-2-(thiophen-3-yl)acetamide]
≤ 5 µM: IC50 (Aurora B) | GI50 [1] | IC50 (human PLK4) | GI50 (HT29 colon cancer cells) | IC50 (human TTK) | GI50 [2]

O=C(N[C@H](c1ccccc1)C1CC1)c1ccc2[nH]nc(-c3ccc(N4CCOCC4)cc3)c2c1 [Example A49, (S)—N-(cyclopropyl(phenyl)methyl)-3-(4-morpholinophenyl)-1H-indazole-5-carboxamide]
≤ 5 µM: IC50 (Aurora B) | GI50 [1] | IC50 (human PLK4) | GI50 (HT29 colon cancer cells) | IC50 (human TTK) | GI50 [2]

C[C@@H]1CN(c2ccc(-c3n[nH]c4ccc(NC(=O)C(c5ccsc5)N5CCCC5)cc34)cc2)C[C@H](C)O1 (stereo partly drawn) [Example A50, N-(3-(4-((2S,6R)-2,6-dimethylmorpholino)phenyl)-1H-indazol-5-yl)-2-(pyrrolidin-1-yl)-2-(thiophen-3-yl)acetamide]
≤ 5 µM: IC50 (Aurora B) | GI50 [1] | IC50 (human PLK4) | GI50 (HT29 colon cancer cells) | IC50 (human TTK) | GI50 [2]

O=C(N[C@@H](c1ccccc1)C1CC1)c1ccc2[nH]nc(-c3ccc(N4CCOCC4)cc3)c2c1 [Example A51, (R)—N-(cyclopropyl(phenyl)methyl)-3-(4-morpholinophenyl)-1H-indazole-5-carboxamide]
≤ 5 µM: IC50 (Aurora B) | GI50 [1] | IC50 (human PLK4) | GI50 (HT29 colon cancer cells) | IC50 (human TTK) | GI50 [2]

O=C(Nc1ccc2[nH]nc(-c3ccc(NC4CCOCC4)cc3)c2c1)C(c1ccsc1)N1CCCC1 (stereo not drawn) [Example A71, 2-(pyrrolidin-1-yl)-N-(3-(4-((tetrahydro-2H-pyran-4-yl)amino)phenyl)-1H-indazol-5-yl)-2-(thiophen-3-yl)acetamide]
≤ 5 µM: IC50 (Aurora B) | GI50 [1] | IC50 (human PLK4) | GI50 (HT29 colon cancer cells) | IC50 (human TTK) | GI50 [2]

CN(c1ccc(-c2n[nH]c3ccc(NC(=O)C(c4ccsc4)N4CCCC4)cc23)cc1)C1CCOCC1 (stereo not drawn) [Example A78, N-(3-(4-(methyl(tetrahydro-2H-pyran-4-yl)amino)phenyl)-1H-indazol-5-yl)-2-(pyrrolidin-1-yl)-2-(thiophen-3-yl)acetamide]
≤ 5 µM: IC50 (Aurora B) | GI50 [1] | IC50 (human PLK4) | GI50 (HT29 colon cancer cells) | IC50 (human TTK) | GI50 [2]

C[C@H]1CCCN1[C@H](C(=O)Nc1ccc2[nH]nc(-c3ccc(N4CCOCC4)cc3)c2c1)c1cccs1 [Example A79, (R)-2-((S)-2-methylpyrrolidin-1-yl)-N-(3-(4-morpholinophenyl)-1H-indazol-5-yl)-2-(thiophen-2-yl)acetamide]
≤ 5 µM: IC50 (Aurora B) | GI50 [1] | IC50 (human PLK4) | GI50 (HT29 colon cancer cells) | IC50 (human TTK) | GI50 [2]

CN1CCC(Oc2ccc(-c3n[nH]c4ccc(NC(=O)C(c5ccsc5)N5CCCC5)cc34)cc2N)CC1 (stereo not drawn) [Example A80, N-(3-(3-amino-4-((1-methylpiperidin-4-yl)oxy)phenyl)-1H-indazol-5-yl)-2-(pyrrolidin-1-yl)-2-(thiophen-3-yl)acetamide]
≤ 5 µM: IC50 (Aurora B) | GI50 [1] | IC50 (human PLK4) | GI50 (HT29 colon cancer cells) | IC50 (human TTK) | GI50 [2]

O=CN1CCC(Oc2ccc(-c3n[nH]c4ccc(C(=O)N[C@H](c5ncccc5Cl)C5CC5)cc34)cc2)CC1 [Example A212, (S)—N-((3-chloropyridin-2-yl)(cyclopropyl)methyl)-3-(4-((1-formylpiperidin-4-yl)oxy)phenyl)-1H-indazole-5-carboxamide]
≤ 5 µM: IC50 (Aurora B) | IC50 (human PLK4) | IC50 (human TTK)

CN1[C@@H]2CC[C@H]1C[C@@H](Oc1ccc(-c3n[nH]c4ccc(C(=O)N[C@H](c5ccccn5)C5CC5)cc34)cc1)C2 [Example A213, N—((S)-cyclopropyl(pyridin-2-yl)methyl)-3-(4-(((1R,3r,5S)-8-methyl-8-azabicyclo[3.2.1]octan-3-yl)oxy)phenyl)-1H-indazole-5-carboxamide]
≤ 5 µM: IC50 (Aurora B) | IC50 (human PLK4) | IC50 (human TTK)

CN1CCC(Oc2ccc(-c3n[nH]c4ccc(C(=O)N[C@H](c5ccccn5)C5CC5)cc34)cc2)CC1 [Example A214, (S)—N-(cyclopropyl(pyridin-2-yl)methyl)-3-(4-((1-methylpiperidin-4-yl)oxy)phenyl)-1H-indazole-5-carboxamide]
≤ 5 µM: IC50 (Aurora B) | IC50 (human PLK4) | IC50 (human TTK)
